From patent publication US9493455B2, “Azaindole derivatives as inhibitors of protein kinases” (ORIBASE PHARMA, priority 2012, dated 2016)
pEC50: −log10 of the molar value.

Tests used:
MDA-MB-231 = assay: In vitro cell proliferation assay (MTT); assay type: cell-based; details: Homo sapiens, MDA-MB-231, 72 h
How it was run: (§1)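 Growth is assessed with the tetrazolium dye MTT following a 72 hr incubation with compound spanning 10 nM up to 3 μM, each dose tested twice on 5×10^3 plated cells per well.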

HeLa = assay: In vitro cell proliferation assay (MTT); assay type: cell-based; details: Homo sapiens, 72 h
How it was run: as §1

BaF3 G250A = assay: In vitro cell proliferation assay (MTT); assay type: cell-based; details: Mus musculus, BaF3, 72 h
How it was run: as §1

PC-3 = assay: In vitro cell proliferation assay (MTT); assay type: cell-based; details: Homo sapiens, PC-3, 72 h
How it was run: as §1

H1975 cells = assay: Xenograft mouse model, human NSCLC with EGFR mutations; assay type: in vivo, mice
Experimental: Several xenograft mouse models were prepared: • 1) imatinib-resistant leukemia by subcutaneously implanting Ba/F3 T315I cells (1×10^8 cell/mL in sterile PBS), into the right flank of athymic nude male mice (HSD, 6-7 weeks old). When the tumor volume reached approximately 50 mm^3, mice were assigned randomly to either vehicle alone or OR0512 treatment groups (five mice per group). Mice were treated with either vehicle (DMSO) or OR0512 (40 mg/kg q.d.; per os for 11 consecutive days). • 2) human pancreatic adenocarcinoma model by subcutaneously implanting BxPC-3 cells (1×10^7 cell/mL in sterile PBS), into the right flank of athymic nude male mice (HSD, 6-7 weeks old). […]
Tumor volumes in mm^3 were determined three times a week with a digital caliper and calculated using the following formula: Tumor Volume (mm^3)=length (mm)×width (mm)×width (mm)×½. Body weight was measured three times a week, and mice were observed daily for monitoring signs of stress to detect possible toxicities. […] Data were analyzed with Prism 5.0b (GraphPad Software) by one-way ANOVA with Bonferroni post hoc. Tumor Growth Inibition (TGI) is calculated as the percent decrease of tumor growth at the end of the study in the OR0512 treatment group in comparison to the vehicle alone treatment group.

BTK = molecular target: T1, BTK (Homo sapiens, UniProt Q06187); assay: In vitro kinase assay (Z′-LYTE); assay type: biochemical; details: read-out: percent inhibition of the kinase compared to the control
T1 construct: purchased Invitrogen
How it was run: (§2)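 Read-out is a ratiometric FRET signal (donor/acceptor emission, 400 nm excitation) from a doubly labelled peptide, whose cleavage by a development protease depends on its phosphorylation state. ATP used at apparent Km in HEPES pH 7.5 buffer with MgCl2; compounds at 100 nM, or 10 μM for ABL T315I.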

EPHB4 = molecular target: T2, EPHB4 (Homo sapiens, UniProt P54760); assay: In vitro kinase assay (Z′-LYTE); assay type: biochemical; details: read-out: percent inhibition of the kinase compared to the control
T2 construct: purchased Invitrogen
How it was run: as §2

PKC theta = molecular target: T3, PKC theta (Homo sapiens, UniProt Q04759); assay: In vitro kinase assay (Z′-LYTE); assay type: biochemical; details: read-out: percent inhibition of the kinase compared to the control
T3 construct: purchased Invitrogen
How it was run: as §2

FGR = molecular target: T4, FGR (Homo sapiens, UniProt P09769); assay: In vitro kinase assay (Z′-LYTE); assay type: biochemical; details: read-out: percent inhibition of the kinase compared to the control
T4 construct: purchased Invitrogen
How it was run: as §2

HER2 = molecular target: T5, HER2 (Homo sapiens, UniProt P04626); assay: In vitro kinase assay (Z′-LYTE); assay type: biochemical; details: read-out: percent inhibition of the kinase compared to the control
T5 construct: purchased Invitrogen
How it was run: as §2

FRK = molecular target: T6, FRK (Homo sapiens, UniProt P42685); assay: In vitro kinase assay (Z′-LYTE); assay type: biochemical; details: read-out: percent inhibition of the kinase compared to the control
T6 construct: purchased Invitrogen
How it was run: as §2

FYN = molecular target: T7, FYN (Homo sapiens, UniProt P06241); assay: In vitro kinase assay (Z′-LYTE); assay type: biochemical; details: read-out: percent inhibition of the kinase compared to the control
T7 construct: purchased Invitrogen
How it was run: as §2

BRAF = molecular target: T8, BRAF (Homo sapiens, UniProt P15056); assay: In vitro kinase assay (Z′-LYTE); assay type: biochemical; details: compound 100 nM; ATP 100 μM; read-out: % of inhibition of the kinase compared to the control
T8 construct: purchased Invitrogen
How it was run: as §2

EPHA2 = molecular target: T9, EPHA2 (Homo sapiens, UniProt P29317); assay: In vitro kinase assay (Z′-LYTE); assay type: biochemical; details: read-out: percent inhibition of the kinase compared to the control
T9 construct: purchased Invitrogen
How it was run: as §2

BRAF V600E = molecular target: T10, BRAF V600E (Homo sapiens, UniProt P15056, V600E); assay: In vitro kinase assay (Z′-LYTE); assay type: biochemical; details: read-out: percent inhibition of the kinase compared to the control
T10 construct: purchased Invitrogen
How it was run: as §2

RET = molecular target: T11, RET (Homo sapiens, UniProt P07949); assay: In vitro kinase assay (Z′-LYTE); assay type: biochemical; details: read-out: percent inhibition of the kinase compared to the control
T11 construct: purchased Invitrogen
How it was run: as §2

T3 sequence (Q04759 whole entry): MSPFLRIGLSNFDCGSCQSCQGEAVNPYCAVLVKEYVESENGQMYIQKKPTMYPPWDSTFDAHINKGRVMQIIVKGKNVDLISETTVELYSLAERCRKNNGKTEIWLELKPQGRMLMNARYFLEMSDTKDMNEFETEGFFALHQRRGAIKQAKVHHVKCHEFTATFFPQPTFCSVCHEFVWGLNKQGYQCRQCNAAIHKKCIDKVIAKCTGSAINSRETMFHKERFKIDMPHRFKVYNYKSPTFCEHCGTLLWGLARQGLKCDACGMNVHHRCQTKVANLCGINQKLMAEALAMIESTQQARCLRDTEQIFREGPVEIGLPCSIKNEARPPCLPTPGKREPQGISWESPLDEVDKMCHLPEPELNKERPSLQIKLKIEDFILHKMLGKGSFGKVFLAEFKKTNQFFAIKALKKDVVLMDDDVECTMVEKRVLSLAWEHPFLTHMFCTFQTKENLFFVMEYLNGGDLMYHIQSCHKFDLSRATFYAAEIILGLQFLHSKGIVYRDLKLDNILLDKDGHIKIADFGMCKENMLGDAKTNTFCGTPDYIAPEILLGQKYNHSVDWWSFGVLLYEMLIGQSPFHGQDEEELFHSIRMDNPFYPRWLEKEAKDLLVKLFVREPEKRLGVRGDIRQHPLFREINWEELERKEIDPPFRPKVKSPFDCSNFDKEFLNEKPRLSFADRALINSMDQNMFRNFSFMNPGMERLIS
T10 sequence (P15056 whole entry V600E): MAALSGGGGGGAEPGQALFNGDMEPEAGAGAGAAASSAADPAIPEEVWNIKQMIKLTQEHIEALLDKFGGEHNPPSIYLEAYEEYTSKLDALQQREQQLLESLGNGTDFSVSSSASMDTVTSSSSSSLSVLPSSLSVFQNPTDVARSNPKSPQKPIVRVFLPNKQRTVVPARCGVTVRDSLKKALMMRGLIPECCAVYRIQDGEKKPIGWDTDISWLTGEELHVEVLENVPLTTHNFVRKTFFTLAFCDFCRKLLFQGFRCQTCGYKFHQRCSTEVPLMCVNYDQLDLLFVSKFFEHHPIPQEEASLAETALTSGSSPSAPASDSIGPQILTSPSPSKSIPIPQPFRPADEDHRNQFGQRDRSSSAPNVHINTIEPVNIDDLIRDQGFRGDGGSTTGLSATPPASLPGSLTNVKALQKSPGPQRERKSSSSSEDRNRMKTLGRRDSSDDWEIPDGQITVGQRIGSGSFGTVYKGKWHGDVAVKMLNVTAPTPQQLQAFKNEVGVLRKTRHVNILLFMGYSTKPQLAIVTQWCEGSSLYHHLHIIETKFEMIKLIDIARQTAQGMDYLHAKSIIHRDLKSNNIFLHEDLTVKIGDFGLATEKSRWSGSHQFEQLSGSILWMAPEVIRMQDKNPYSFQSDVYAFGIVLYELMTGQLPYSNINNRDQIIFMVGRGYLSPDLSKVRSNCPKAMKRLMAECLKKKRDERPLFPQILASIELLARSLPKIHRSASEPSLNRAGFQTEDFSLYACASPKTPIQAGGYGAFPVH
T4 sequence (P09769 whole entry): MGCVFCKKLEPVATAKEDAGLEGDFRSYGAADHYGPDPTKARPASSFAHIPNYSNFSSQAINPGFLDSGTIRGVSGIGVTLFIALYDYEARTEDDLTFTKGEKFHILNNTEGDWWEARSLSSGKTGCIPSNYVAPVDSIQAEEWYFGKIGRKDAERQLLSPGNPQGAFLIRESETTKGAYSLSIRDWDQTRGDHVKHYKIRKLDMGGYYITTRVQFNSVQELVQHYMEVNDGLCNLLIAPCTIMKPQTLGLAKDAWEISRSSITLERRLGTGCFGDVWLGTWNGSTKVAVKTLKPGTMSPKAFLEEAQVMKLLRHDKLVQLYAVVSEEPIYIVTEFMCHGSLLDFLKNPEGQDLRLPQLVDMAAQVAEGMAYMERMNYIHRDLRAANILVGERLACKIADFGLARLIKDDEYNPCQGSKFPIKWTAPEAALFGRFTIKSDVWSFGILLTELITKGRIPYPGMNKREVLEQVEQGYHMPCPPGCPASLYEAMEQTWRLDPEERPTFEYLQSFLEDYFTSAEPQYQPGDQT
T7 sequence (P06241 whole entry): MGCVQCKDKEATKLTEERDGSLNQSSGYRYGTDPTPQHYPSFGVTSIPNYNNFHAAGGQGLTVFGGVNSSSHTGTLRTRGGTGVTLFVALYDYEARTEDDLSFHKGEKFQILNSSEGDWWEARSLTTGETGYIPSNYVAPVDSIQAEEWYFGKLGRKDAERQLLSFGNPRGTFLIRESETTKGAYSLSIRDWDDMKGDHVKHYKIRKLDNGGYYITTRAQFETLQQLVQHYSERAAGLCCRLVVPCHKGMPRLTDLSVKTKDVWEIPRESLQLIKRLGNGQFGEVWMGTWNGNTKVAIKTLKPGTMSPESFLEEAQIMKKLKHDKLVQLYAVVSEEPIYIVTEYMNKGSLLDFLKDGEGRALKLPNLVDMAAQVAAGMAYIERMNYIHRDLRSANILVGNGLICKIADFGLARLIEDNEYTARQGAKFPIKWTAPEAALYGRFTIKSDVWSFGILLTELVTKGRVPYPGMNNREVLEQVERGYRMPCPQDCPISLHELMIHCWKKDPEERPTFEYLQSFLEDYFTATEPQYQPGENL
T2 sequence (P54760 16-987): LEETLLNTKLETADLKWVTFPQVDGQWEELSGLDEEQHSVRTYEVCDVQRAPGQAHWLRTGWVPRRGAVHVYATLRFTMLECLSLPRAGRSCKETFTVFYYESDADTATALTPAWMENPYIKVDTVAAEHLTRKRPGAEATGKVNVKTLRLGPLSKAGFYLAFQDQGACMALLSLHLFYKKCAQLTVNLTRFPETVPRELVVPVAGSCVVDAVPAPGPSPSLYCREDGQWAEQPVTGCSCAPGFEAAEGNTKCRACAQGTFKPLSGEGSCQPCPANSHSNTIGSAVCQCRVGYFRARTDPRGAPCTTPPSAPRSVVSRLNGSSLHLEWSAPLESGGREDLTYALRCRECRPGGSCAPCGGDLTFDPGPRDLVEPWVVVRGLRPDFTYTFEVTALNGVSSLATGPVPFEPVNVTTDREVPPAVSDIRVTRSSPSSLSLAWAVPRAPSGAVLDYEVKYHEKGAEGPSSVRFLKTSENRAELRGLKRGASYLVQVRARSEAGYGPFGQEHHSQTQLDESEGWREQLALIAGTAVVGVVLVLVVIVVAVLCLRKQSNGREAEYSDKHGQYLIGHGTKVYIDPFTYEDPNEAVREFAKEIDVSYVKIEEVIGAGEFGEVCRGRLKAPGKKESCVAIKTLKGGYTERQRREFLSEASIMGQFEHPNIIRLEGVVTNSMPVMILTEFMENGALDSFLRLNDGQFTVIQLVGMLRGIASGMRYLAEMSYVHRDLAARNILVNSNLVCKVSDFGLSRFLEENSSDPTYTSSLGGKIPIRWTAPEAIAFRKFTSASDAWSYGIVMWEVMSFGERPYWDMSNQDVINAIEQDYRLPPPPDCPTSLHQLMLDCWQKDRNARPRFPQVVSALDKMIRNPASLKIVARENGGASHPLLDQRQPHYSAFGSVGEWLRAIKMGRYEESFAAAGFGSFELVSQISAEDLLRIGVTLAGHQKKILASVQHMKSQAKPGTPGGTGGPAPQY
T11 sequence (P07949 29-1114): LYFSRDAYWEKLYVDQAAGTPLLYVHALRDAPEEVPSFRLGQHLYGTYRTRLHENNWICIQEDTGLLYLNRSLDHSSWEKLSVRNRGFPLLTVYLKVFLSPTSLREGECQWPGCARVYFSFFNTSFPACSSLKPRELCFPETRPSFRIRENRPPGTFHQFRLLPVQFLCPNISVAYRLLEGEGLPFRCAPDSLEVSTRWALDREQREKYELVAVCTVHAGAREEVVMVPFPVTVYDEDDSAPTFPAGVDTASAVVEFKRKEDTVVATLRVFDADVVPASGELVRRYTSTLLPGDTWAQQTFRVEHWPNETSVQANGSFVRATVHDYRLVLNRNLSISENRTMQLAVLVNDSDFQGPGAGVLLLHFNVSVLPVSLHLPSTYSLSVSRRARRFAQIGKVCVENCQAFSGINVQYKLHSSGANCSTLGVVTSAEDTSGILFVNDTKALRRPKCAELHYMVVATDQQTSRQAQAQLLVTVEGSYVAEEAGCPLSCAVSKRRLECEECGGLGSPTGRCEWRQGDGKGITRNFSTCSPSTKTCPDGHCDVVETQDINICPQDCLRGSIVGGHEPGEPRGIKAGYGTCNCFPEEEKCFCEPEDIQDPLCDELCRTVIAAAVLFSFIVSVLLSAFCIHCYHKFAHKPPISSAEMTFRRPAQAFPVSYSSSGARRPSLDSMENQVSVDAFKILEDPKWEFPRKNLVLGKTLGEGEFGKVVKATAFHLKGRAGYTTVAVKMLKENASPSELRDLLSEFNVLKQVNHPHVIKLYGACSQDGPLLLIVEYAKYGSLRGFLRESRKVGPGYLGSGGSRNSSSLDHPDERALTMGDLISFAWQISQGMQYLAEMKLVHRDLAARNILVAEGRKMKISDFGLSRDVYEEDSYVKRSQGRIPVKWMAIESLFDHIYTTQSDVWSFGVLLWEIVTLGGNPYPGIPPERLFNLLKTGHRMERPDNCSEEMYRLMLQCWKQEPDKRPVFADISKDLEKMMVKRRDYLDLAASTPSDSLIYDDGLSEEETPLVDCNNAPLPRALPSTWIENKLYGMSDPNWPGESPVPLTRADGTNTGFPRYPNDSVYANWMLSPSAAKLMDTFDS
T8 sequence (P15056 whole entry): as the sequence (P15056 whole entry V600E) above, with E600V counted along it

COC(=O)c1cc2cc(NCc3cc(NC(=O)c4ccc(CN5CCN(C)CC5)c(C(F)(F)F)c4)ccc3C)cnc2[nH]1 [OR0512]
pEC50 (MDA-MB-231): ≥ 7.00
pEC50 (HeLa): 6.00 to 7.00
pEC50 (BaF3 G250A): ≥ 7.00
pEC50 (PC-3): 6.00 to 7.00
Tumor Growth Inhibition - TGI (H1975 cells; H1975 xenograft, mice, 20 mg/kg q.d. per os, 22 days, versus vehicle, **P < 0.05): 73%**
decrease of tumor growth (in words) (H1975 cells; xenografted mice, human NSCLC (mutated form of EGFR) model): significantly induced a decrease of tumor growth
inhibition at 0.1 µM (BTK): > 50%
inhibition at 0.1 µM (EPHB4): > 50%
inhibition at 0.1 µM (PKC theta): > 50%
inhibition at 0.1 µM (FGR): > 50%
inhibition at 0.1 µM (HER2): > 50%
inhibition at 0.1 µM (FRK): > 50%
inhibition at 0.1 µM (FYN): > 50%
inhibition at 0.1 µM (BRAF): ≥ 50%
inhibition at 0.1 µM (EPHA2): > 50%
inhibition at 0.1 µM (BRAF V600E): > 50%
inhibition at 0.1 µM (RET): > 50%
